Like-named read-outs stand apart in the source and are kept apart here. Where only a bound is given, the exact number is not on record here.

The results in this text go back to patent US20240124469A1, “PIM KINASE INHIBITOR” (Hangzhou Biosun Pharmaceutical Co., Ltd., priority 2021, published 2024).

Data set [1] addresses PIM1 (Homo sapiens (Human), UniProt P11309). The experiment in a line: PIM1 kinase activity test (Mobility shift assay). Type of data set: biochemical. Here is the method: (§1) The efficacy of the compounds on the activity of PIM1/2/3 was tested by utilizing the Mobility shift assay method, with the specific procedures shown as follows: the test compounds were each dissolved in DMSO to be prepared into a 10 mM stock solution; for each of the test compounds, the stock solution was subjected to a 3-fold dilution from an initial concentration of 10 μM to obtain 10 concentrations.
(§2) PIM1, PIM2, and PIM3 (all three kinases are from Carna) were each prepared with 1× Kinase buffer into a kinase solution at a concentration that was 2.5 times the final concentration. 10 μL of kinase solution at a concentration that was 2.5 times the final concentration was added to each of the compound wells and the positive control well, and 10 μL of 1× Kinase buffer was added to the negative control well. The plate was centrifuged at 1000 rpm for 30 s, mixed well by shaking, and then incubated at room temperature for 10 min. A mixed solution of ATP and Kinase substrate 20 (from GL) at a concentration that was 25/15 times the final concentration was prepared with 1× Kinase buffer. The reaction was started by adding 15 μL of the mixed solution of ATP and Kinase substrate 20 at a concentration that was 25/15 times the final concentration. The 384-well plate was centrifuged at 1000 rpm for 30 s, mixed well by shaking, and then incubated at room temperature for 60 min. 30 μL of stop assay buffer was added to stop the kinase reaction. The plate was centrifuged at 1000 rpm for 30 s and mixed well by shaking. The conversion rates were read using Caliper EZ Reader.
(§3) The IC50 values of the test compounds for kinase activity were obtained by adopting a fitted dose-response curve of analytic software GraphPad Prism 5.

Data set [2] concerns the target PIM2 (Homo sapiens (Human), UniProt Q9P1W9). As to the kind of experiment: PIM2 kinase activity test (Mobility shift assay). Type of data set: biochemical. Here is the method: as §1, §2, §3
The target of data set [3] is PIM3 (Homo sapiens (Human), UniProt Q86V86). As to the kind of experiment: PIM3 kinase activity test (Mobility shift assay). The data set is classed as biochemical. Here is the method: as §1, §2, §3
Data set [4] relates to Ba/F3-EPOR-JAK2-V617F. As to the kind of experiment: Cell inhibitory activity test (72 h CTG). Type of data set: cell-based. Here is the method:
The EPOR-JAK2-V617F gene was transferred into Ba/F3 wild-type cells by a retrovirus packaging system to obtain a stably transfected cell line Ba/F3-EPOR-JAK2-V617F, which was used for the cell inhibitory activity ICso test of the compounds (reference: Blood. 2010; 115(15): 3109-3117). The specific procedures were as follows: • Cells were seeded in a 96-well plate, treated with the test compounds from DMSO stock solutions (final concentration of DMSO is 0.2%), and cultured at 37° C. with 5% CO2 for 72 h. Then, the cell proliferation inhibitory activity was assayed by the CTG (Cell-Titer Glo) method. For each of the test compounds, the stock solution was subjected to a 3-fold dilution from an initial concentration of 10 μM to obtain 9 concentrations. The dose-response relationship curve was fitted by using Graphpad 7.0 analysis software, and IC50 values were obtained.

The nature of data set [5]: Pharmacokinetic test. Type of data set: in vivo. The note with it: BALB/c mice; for AUC(0-t) / clearance / half-life / Vd / Cmax / Tmax: female, mouse, plasma; for half-life: read-out: Terminal t1/2 (converted); for Vd: read-out: Vss. Here is the method:
Experimental animals: BALB/c mice, female; weight: 19-25 g.
Preparation of test sample: the target compound was prepared into solutions at 0.4 mg/mL (for intravenous administration) and 5.0 mg/mL (for oral administration) for later use. Route of administration: oral administration/intravenous injection. Dosing volume and frequency: 5 mL/kg (intravenous injection) or 10 mL/kg (oral administration), single dose.
Sample collection: blood was collected at the following time points: 5 min, 15 min, 30 min, 1 hr, 2 hr, 4 hr, 8 hr, and 24 hr after the administration.
Sample analysis: the collected samples were detected by using an LC-MS/MS method. The model of the instrument used was AB Sciex 5500.
Pharmacokinetic data analysis: the resulting plasma concentration data were fitted and calculated according to a non-compartmental model.

Sequence of PIM2 (Q9P1W9 whole entry): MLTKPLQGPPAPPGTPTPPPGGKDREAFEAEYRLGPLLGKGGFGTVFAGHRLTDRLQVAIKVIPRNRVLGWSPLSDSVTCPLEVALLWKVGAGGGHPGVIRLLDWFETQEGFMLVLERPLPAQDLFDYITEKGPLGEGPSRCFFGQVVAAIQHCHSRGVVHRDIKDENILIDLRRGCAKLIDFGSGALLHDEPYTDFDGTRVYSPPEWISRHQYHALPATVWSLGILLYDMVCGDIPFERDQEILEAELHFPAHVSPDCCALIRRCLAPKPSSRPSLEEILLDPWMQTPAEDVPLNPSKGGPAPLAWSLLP
Sequence of PIM1 (P11309 whole entry): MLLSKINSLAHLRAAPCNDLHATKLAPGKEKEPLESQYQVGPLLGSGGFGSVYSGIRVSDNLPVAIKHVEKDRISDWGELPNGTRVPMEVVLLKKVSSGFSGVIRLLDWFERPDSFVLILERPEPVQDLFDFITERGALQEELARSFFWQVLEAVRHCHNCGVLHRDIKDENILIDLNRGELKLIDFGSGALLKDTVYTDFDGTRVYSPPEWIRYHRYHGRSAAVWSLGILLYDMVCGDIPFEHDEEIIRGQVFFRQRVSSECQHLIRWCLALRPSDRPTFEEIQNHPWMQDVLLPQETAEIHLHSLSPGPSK

As a reminder, the IC50 is the point on the concentration scale where inhibition reaches its midpoint. One may read the AUC(0-t) as the area under the concentration-time curve up to a stated or last time point. High values mean more exposure, low ones less exposure. Usually clearance stands for a measure of how efficiently the substance is removed, as volume per time. One may read the Cmax as the maximum level reached in the sampled fluid or tissue. For orientation: Tmax means the time at which the peak concentration occurs. For the compound `CC(C)(O)[C@H]1CC[C@H](Nc2ccc3ncc(-c4ccc(C(F)(F)F)s4)n3n2)CC1` [Compound 20, 2-((1r,4r)-4-4-((3-(5-(trifluoromethyl)thiophen-2-yl)imidazo[1,2-b]pyridazin-6-yl)amino)cyclohexyl)propan-2-ol], in data set [1], the IC50 was below 2 nM. The 50% inhibitory concentration (IC50) in data set [2] was 100 to 1000 nM. In addition, in data set [3], the concentration for half-maximal inhibition (IC50) was 10 to 100 nM. This compound also yielded a 50% inhibitory concentration (IC50) in data set [4] below 50 nM. Moreover, in data set [5] (oral administration, 50 mg/kg), the F amounted to 66.6%, the AUC(0-t) was found to be 18100 ng·h/mL, the highest level (Cmax) was 3980 ng/mL and the Tmax was 1.33 h. Further, the half-life in data set [5] (oral administration, 50 mg/kg) was 3.5 h. Moreover, in data set [5] (intravenous injection, 2 mg/kg), the AUC(0-t) is 1090 ng·h/mL, the clearance is 31 mL/min/kg, the half-life was 1.06 h and the Vd is 1.85 L/kg.
As to `FC(F)(F)c1ccc(-c2cnc3ccc(NC4CCCNCC4)nn23)s1` (stereo not drawn) [Compound 28, N-(azepan-4-yl)-3-[5-(trifluoromethyl)-2-thienyl] imidazo[1,2-b] pyrid azin-6-amine], the IC50 is below 2 nM in data set [1], 100 to 1000 nM in data set [2], 10 to 100 nM in data set [3] and 50 to 100 nM in data set [4].
Regarding `OC12CCC(Nc3ccc4ncc(-c5ccc(C(F)(F)F)s5)n4n3)(CC1)CC2` [Compound 29, 4-[[3-[5-(trefluoromethyl)-2-thienyl]imidazo[1,2-b]pyridazin-6-yl]amino]bicyclo [2.2.2] octan-1-ol], in data set [1], the IC50 was below 2 nM. Besides, in data set [2], the IC50 fell in the range of 10 to 100 nM. Besides, the 50% inhibitory concentration (IC50) in data set [3] was in the range of 10 to 100 nM. In data set [4], this compound gave a half-maximal inhibitory concentration (IC50) below 50 nM. Further, in data set [5] (oral administration, 50 mg/kg), the F is recorded as 35.7%, the AUC(0-t) turned out to be 7650 ng·h/mL, the maximum concentration (Cmax) stood at 6670 ng/mL and the time to peak (Tmax) was 0.33 h. In data set [5] (oral administration, 50 mg/kg), the half-life is 1.41 h. Further, in data set [5] (intravenous injection, 2 mg/kg), the AUC(0-t) was 859 ng·h/mL, the clearance is 39.7 mL/min/kg, the half-life is 0.42 h and the Vd came out at 1.38 L/kg.
`FC(F)(F)c1ccc(-c2cnc3ccc(NC4CC5(CCNCC5)C4)nn23)s1` [Compound 31, N-(7-azaspiro[3.5]nonan-2-yl)-3-[5-(trifluoromethyl)-2-thienyl]imidazo[1,2-b]pyridazin-6-amine]: the IC50 in data set [1] is below 2 nM; in data set [2], 100 to 1000 nM; in data set [3], 10 to 100 nM; in data set [4], 50 to 100 nM.
For `OC[C@@H]1CC[C@@H](Nc2ccc3ncc(-c4ccc(C(F)(F)F)s4)n3n2)CO1` [Compound 46, [(2S,5R)-5-[[3-[5-(trifluoromethyl)-2-thienyl]imidazo[1,2-b]pyridazin-6-yl]amino]tetrahydropyran-2-yl]methanol], the IC50 in data set [1] was in the range of 2 to 10 nM. The 50% inhibitory concentration (IC50) in data set [2] was in the range of 1000 to 10000 nM. The concentration for half-maximal inhibition (IC50) in data set [3] lay in the range of 100 to 1000 nM. Also, in data set [4], the IC50 lay in the range of 100 to 150 nM. Moreover, in data set [5] (oral administration, 50 mg/kg), the F stood at 89.9%, the AUC(0-t) came out at 11800 ng·h/mL, the maximum concentration (Cmax) was determined as 10600 ng/mL and the Tmax worked out at 0.5 h. Moreover, the half-life in data set [5] (oral administration, 50 mg/kg) was 0.91 h. For the same compound, in data set [5] (intravenous injection, 2 mg/kg), the exposure AUC(0-t) stood at 523 ng·h/mL, the clearance was 65.8 mL/min/kg, the half-life was 0.26 h and the Vd was found to be 1.47 L/kg.
Regarding `CC(C)(O)[C@H]1CC[C@H](Nc2ccc3ncc(-c4cccc(C(F)(F)F)c4)n3n2)CC1` [TP-3654, reference compound], the IC50 in data set [1] lay within 10 to 100 nM. The half-maximal inhibitory concentration (IC50) in data set [2] was 100 to 1000 nM. Further, in data set [3], the IC50 was 100 to 1000 nM. Besides, in data set [4], the IC50 was above 150 nM. In data set [5] (oral administration, 50 mg/kg), the F is on record as 42.3%, the AUC(0-t) was 6800 ng·h/mL, the peak level (Cmax) was 2550 ng/mL and the time to peak (Tmax) was 1 h. The half-life in data set [5] (oral administration, 50 mg/kg) is 1.33 h. Moreover, in data set [5] (intravenous injection, 2 mg/kg), the AUC(0-t) was 652 ng·h/mL, the clearance was 51.8 mL/min/kg, the half-life is 1.24 h and the Vd worked out at 5.58 L/kg.
